Data as given in US20050113349A1, “2-Alpha vitamin D derivatives having substituents” (Hiroaki TAKAYAMA, priority 1999, published 2005).

The compounds below were run against T1, Vitamin D Receptor (VDR) (Bos taurus, UniProt Q28037) (assay: Assay for binding to vitamin D receptor (VDR), displacement of [3H]-1α,25-dihydroxyvitamin D3). Details: relative value with that of 1α,25-dihydroxyvitamin D3 taken as 100; bovine thymus receptor; [3H]-1α,25-dihydroxyvitamin D3 0.1 nM; overnight at 4° C.
T1 construct: Bovine thymus 1α,25-dihydroxyvitamin D3 receptor was purchased; purchased YAMASA SHOYU KABUSHIKI KAISHA lot.110431; host or cells: bovine thymus (tissue preparation)
T1 sequence (Q28037 1-426): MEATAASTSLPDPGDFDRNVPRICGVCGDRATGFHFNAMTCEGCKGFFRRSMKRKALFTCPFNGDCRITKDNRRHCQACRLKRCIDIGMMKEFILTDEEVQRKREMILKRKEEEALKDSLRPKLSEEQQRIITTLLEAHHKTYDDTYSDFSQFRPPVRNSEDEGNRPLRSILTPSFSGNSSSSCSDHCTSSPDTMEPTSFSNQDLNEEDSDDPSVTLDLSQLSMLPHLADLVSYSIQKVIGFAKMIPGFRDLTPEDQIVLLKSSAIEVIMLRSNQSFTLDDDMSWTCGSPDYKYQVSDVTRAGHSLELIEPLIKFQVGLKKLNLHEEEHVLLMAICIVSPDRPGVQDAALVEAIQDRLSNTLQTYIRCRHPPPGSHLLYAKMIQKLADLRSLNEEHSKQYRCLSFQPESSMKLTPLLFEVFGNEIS
Experimental: Assay for Binding to Vitamin D Receptor (VDR)
Bovine thymus 1α,25-dihydroxyvitamin D3 receptor was purchased from YAMASA SHOYU KABUSHIKI KAISHA (lot.110431) and 1 ampule (approximately 25 mg) of the receptor was dissolved in 55 mL of 0.05 M phosphate 0.5M potassium buffer (pH 7.4) just before use. Ethanol solutions (50 μl) of 1α,25-dihydroxyvitamin D3 and Compounds 31-35 of the present invention at various concentrations were prepared, mixed with aliquots (500 μl, 0.23 mg protein) of the receptor solution and pre-incubated at room temperature for 1 hour. To the resultant mixtures, [^3H]-1α,25-dihydroxyvitamin D3 was added at the final concentration of 0.1 nM, followed by incubation overnight at 4° C.
The reaction mixtures were treated with dextran coated charcoal for 30 minutes at 4° C. to separate the bound and free forms of [^3H]-1α,25-dihydroxyvitamin D3, and centrifuged at 3000 rpm for ten minutes. Each of the resultant supernatants (500 μl) was mixed with ACS-II (9.5 ml) (AMERSHAM, England) for radioactivity measurement.
The binding properties of Compounds 31-35 of the present invention were expressed in relative values with that of 1α,25-dihydroxyvitamin D3 taken as 100.
Work on `C=C1C(=CC=C2CCCC3(C)C2CCC3C(C)CCCC(C)(C)O)CC(O)C(CCO)C1O` [Compound 32, (5Z,7E)-(1S,2S,3R,20R)-9,10-seco-5,7,10(19)-cholestatriene-2-(2′-hydroxyethyl)-1,3,25-triol] yielded a Binding property of 70. Work on `C=C1/C(=C\C=C2/CCC[C@]3(C)[C@@H]([C@H](C)CCCC(C)(C)O)CC[C@@H]23)C[C@@H](O)[C@H](CC)[C@@H]1O` [Compound 34, (5Z,7E)-(1S,2S,3R,20R)-9,10-seco-5,7,10(19)-cholestatriene-2-ethyl-1,3,25-triol] yielded a Binding property of 40. In the case of “(5Z,7E)-(1S,2S,3R,20R)-9,10-seco-5,7,10(19)-cholestatriene-2-hydroxymethyl-1,3,25-triol [Compound 31]”, the Binding property is reported as 20. In the case of “(5Z,7E)-(1S,2S,3R,20R)-9,10-seco-5,7,10(19)-cholestatriene-2-(3′-hydroxypropyl)-1,3,25-triol [Compound 33]”, the Binding property is reported as 300. Work on `C=C1C(=CC=C2CCCC3(C)C2CCC3C(C)CCCC(C)(C)O)CC(O)C(CCC)C1O` [Compound 35, (5Z,7E)-(1S,2S,3R,20R)-9,10-seco-5,7,10(19)-cholestatriene-2-propyl-1,3,25-triol] yielded a Binding property of 20.
